Experimental data from ChEMBL document CHEMBL1201862, “PubChem BioAssay data set” (2004).
Activity calls are given as the source filed them.

Experiments:
Vero = assay: Vero cell toxicity, dose response, cytotoxicity control, plate reader, cherry-pick samples (AID 687020); format: functional, cell-based; conditions: Chlorocebus sabaeus
[1] = target: 1-phosphatidylinositol 4,5-bisphosphate phosphodiesterase gamma-1 (Homo sapiens, UniProt P19174); assay: Counterscreen for inhibitors of phospholipase C isozymes (PLC-B3): Fluorescence-based biochemical high throughput dose response assay to identify inhibitors of phospholipase C isozymes (PLC-gamma1).
[2] = target: 1-phosphatidylinositol 4,5-bisphosphate phosphodiesterase beta-3 (Homo sapiens, UniProt Q01970); assay: Fluorescence-based biochemical high throughput dose response assay to identify inhibitors of phospholipase C isozymes (PLC-B3).
[3] = non-specific cell cytotoxicity, dose response, cytotoxicity control for PAX8 inhibitor project, plate reader, dry powder samples (AID 743021); format: functional, cell-based
[4] = inhibitors of PGC1a acetylation in cells, dose response, cell-based, cherry-picked samples (AID 720514); format: functional;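 note: potency may reflect raised or lowered acetylation signal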
[5] = target: T1, Hepatocyte nuclear factor 4-alpha (Homo sapiens, UniProt P41235); format: functional, cell-based;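 note: biochemical luminescence-based dose-response counterscreen measuring inhibition of HNF4 dimerization, run alongside a screen for blockers of ABHD5–perilipin-5 interaction; split luciferase complementation of HNF4 fusion proteins in cell lysate measuring dimerization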
T1 sequence (P41235 whole entry): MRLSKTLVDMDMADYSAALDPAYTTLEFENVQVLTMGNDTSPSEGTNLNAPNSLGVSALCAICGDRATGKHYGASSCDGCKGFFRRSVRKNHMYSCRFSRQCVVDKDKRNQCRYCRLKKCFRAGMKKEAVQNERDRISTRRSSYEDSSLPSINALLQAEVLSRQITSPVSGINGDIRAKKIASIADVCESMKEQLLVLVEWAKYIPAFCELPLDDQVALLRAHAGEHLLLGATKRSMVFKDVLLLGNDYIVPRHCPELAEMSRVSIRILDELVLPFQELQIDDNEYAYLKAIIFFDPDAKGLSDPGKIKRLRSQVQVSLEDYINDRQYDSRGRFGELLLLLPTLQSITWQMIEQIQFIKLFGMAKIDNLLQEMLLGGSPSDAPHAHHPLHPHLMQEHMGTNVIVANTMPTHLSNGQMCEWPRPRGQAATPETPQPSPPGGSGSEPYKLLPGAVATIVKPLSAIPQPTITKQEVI

Paired box protein Pax-8 = Paired box protein Pax-8 (Homo sapiens, UniProt Q06710); assay: inhibitors of PAX8-driven TPO luciferase reporter, dose response, RMG-I cells, cherry-pick (AID 687027); format: functional, cell-based;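 note: luciferase reporter driven by Pax8 target thyroperoxidase promoter measured by SteadyGlo luminescence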
[6] = LGR2 antagonists, dose response, cell-based, HEK293, CRE-luciferase reporter, cherry pick, set 2 (AID 743343); format: functional;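 note: transfected cells were stimulated with diluted bursicon conditioned medium after compound addition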
[7] = MC4R antagonists, dose response, counter-screen for LGR2 antagonist project, cell-based, plate reader, cherry pick (AID 743444); format: functional;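 note: transfected HEK 293 cells stimulated with alpha-MSH peptide; potency of inhibitors of the alpha-MSH evoked signal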
[8] = HEK293 cell cytotoxicity, dose response, cytotoxicity control, plate reader, cherry-picked samples (AID 743446); format: functional, cell-based
[9] = A549 cell cytotoxicity, dose response, cytotoxicity control, plate reader, cherry-pick, antagonist series (AID 743412); format: functional, cell-based
[10] = target: Fructose-bisphosphate aldolase (Mycobacterium tuberculosis, UniProt P9WQA3); assay: Fluorescence-based biochemical high throughput dose response assay for inhibitors of the fructose-bisphosphate aldolase (FBA) of M. tuberculosis.; format: functional
Major prion protein = Major prion protein (Homo sapiens, UniProt P04156); format: functional, cell-based
[11] = ZM109 Env clade C HIV-1 fusion inhibitors, dose response, HeLa effector, CEM target cells, luciferase, cherry-pick (AID 652058); format: functional, cell-based
[12] = inhibitors of HIV Env-driven cell fusion, dose response, cherry-pick (AID 652057); format: functional, cell-based
[13] = off-target signal loss in HeLa-CEM21 co-culture – HeLa F-luc CTL cells, cherry-picked, counter-screen for HIV-1 Env fusion inhibitor project, dose response (AID 652040); format: functional, cell-based;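 note: potency for signal decrease marking cytotoxic or nonspecific inhibition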
[14] = inhibitors of clade B AD8 Env fusion, dose response, cell-based, cherry-pick (AID 652062); format: functional;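 note: luciferase signal from cell-cell fusion driven by HIV-1 clade B AD8 Env; potency is for inhibitors of fusion seen as a drop in luminescence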
[15] = IGROV1 ovarian cancer cell cytotoxicity, dose response, PAX8 inhibitor project, plate reader, dry powder samples (AID 743043); format: functional, cell-based; conditions: IGROV-1

CC1CCOC(c2coc3ccccc3c2=O)O1 (stereo not given)
AC50 (Vero): 24.2 µM (active)

O=C(CCNc1cc(Cl)cc(Cl)c1)c1cccs1
IC50 [1]: > 123 µM (inactive) | IC50 [2]: > 123 µM (inactive)

C#CCN(C[C@@H]1[C@@H](OC(=O)NCCCCCC)[C@@H](OC(=O)NCCCCCC)Cn2c(=O)ccc(=O)n21)S(=O)(=O)c1ccc(C)cc1
AC50 [3]: 38.3 µM (active) | AC50 [4]: 4.88 µM (active) | IC50 [5]: 34.7 µM (inactive) | AC50 (Paired box protein Pax-8): 4.18 µM (active)

N#C[C@@H]1[C@H](c2ccc(C#Cc3ccccc3F)cc2)[C@@H](CO)N1C(=O)C1CC1
AC50 [6]: 5.15 µM (active) | AC50 [7]: 5.44 µM (active) | AC50 [8]: 33.5 µM (active) | AC50 [9]: 24.9 µM (active)

CCN(CC)CCCNC(=O)CCC(=O)Nc1ccc2nc(N3CCC(C)CC3)cc(C)c2c1
IC50 [10]: > 0.37 µM (active)

CC(=O)Nc1ccc2nc(C)c(CC=C(Cl)Cl)c(O)c2c1
IC50 (cells): > 138 µM (inactive) | IC50 (Major prion protein): 10.2 µM (inactive)

CCC(NS(=O)(=O)c1c(C)nc(O)nc1O)C12CC3CC(CC(C3)C1)C2 (stereo not given)
AC50 [11]: 7.79 µM (active) | AC50 [12]: 7.48 µM (active) | AC50 [13]: 11.8 µM (active) | AC50 [14]: 7.16 µM (active)

C[C@H]1CCCCO[C@H](CN(C)C(=O)C2CCCCC2)[C@@H](C)CN([C@@H](C)CO)C(=O)c2cc(NC(=O)Nc3ccc(F)cc3)ccc2O1
AC50 [15]: 57.6 µM (active) | AC50 (Paired box protein Pax-8): 8.1 µM (active)
